Experiments:
Adenosine receptor A3 = target: T1, Adenosine receptor A3 (Gallus gallus, UniProt A0A8V1ACC1)
T1 sequence (A0A8V1ACC1 whole entry): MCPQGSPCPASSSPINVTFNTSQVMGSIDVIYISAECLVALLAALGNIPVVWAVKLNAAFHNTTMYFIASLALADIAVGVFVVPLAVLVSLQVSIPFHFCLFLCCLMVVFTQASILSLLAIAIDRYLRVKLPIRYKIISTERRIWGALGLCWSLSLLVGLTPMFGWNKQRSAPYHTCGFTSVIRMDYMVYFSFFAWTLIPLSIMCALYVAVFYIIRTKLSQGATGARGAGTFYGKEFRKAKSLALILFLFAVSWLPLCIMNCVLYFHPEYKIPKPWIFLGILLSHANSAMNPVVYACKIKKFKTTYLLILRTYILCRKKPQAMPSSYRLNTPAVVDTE

Adenosine receptor A1 = target: T2, Adenosine receptor A1 (Gallus gallus, UniProt P49892)
T2 sequence (P49892 whole entry): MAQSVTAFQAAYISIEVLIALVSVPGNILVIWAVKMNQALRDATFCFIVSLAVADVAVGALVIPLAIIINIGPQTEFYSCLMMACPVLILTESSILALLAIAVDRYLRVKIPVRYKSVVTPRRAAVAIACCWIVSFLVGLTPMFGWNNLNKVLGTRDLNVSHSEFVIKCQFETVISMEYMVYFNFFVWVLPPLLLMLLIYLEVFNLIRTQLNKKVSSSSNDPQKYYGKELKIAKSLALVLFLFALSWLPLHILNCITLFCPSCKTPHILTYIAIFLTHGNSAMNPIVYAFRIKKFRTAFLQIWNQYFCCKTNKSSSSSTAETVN

Compound	Ki (Adenosine receptor A3) [nM]	Ki (Adenosine receptor A1) [nM]
CCNC(=O)[C@H]1O[C@@H](n2cnc3c(N)ncnc32)[C@H](O)[C@@H]1O	37.1	23.4
Cc1ccc(-c2oc3ccc(Cl)cc3c(=O)c2Cl)c(OC(C)C)c1	3310	–
CCCn1c(=O)c2nc[nH]c2n(CCC)c1=O	53.3	11.2
CCOC(=O)C1=C(c2ccccc2)N=C(C)C(C(=O)OCC)C1/C=C/c1ccccc1 (stereo unspecified)	990	3430
OCC1OC(n2cnc3c(NC4CCCC4)nc(Cl)nc32)C(O)C1O (stereo unspecified) [2-(2-Chloro-6-cyclopentylamino-purin-9-yl)-5-hydroxymethyl-tetrahydro-furan-3,4-diol]	6.82	4.01
CNC(=O)[C@H]1O[C@@H](n2cnc3c(NCc4cccc(I)c4)nc(Cl)nc32)[C@H](O)[C@@H]1O [2-Cl-IB-MECA]	–	74
CNC(=O)C1OC(n2cnc3c(NCc4cccc(I)c4)ncnc32)C(O)C1O (stereo unspecified) [3,4-dihydroxy-5-(6-{[(3-iodophenyl)methyl]amino}-9H-purin-9-yl)-N-methyloxolane-2-carboxamide]	2.8	16.3
Nc1ncnc2c1ncn2[C@@H]1O[C@H](C(=O)NCc2ccccc2)[C@@H](O)[C@H]1O [B-NECA]	6.79	6.83
CC(C=C[C@@]1(O)C(C)=CC(=O)CC1(C)C)=CC(=O)O [CAS_14375-45-2]	56.1	–
OC[C@H]1O[C@@H](n2cnc3c(NC4CCCCC4)ncnc32)[C@H](O)[C@@H]1O [CHA]	17.1	1.66
CCCn1c(=O)c2[nH]c(-c3ccc(C=CC(=O)O)cc3)nc2n(CCC)c1=O [NSC_129447]	36.6	167
CC(Cc1ccccc1)Nc1ncnc2c1ncn2C1OC(CO)C(O)C1O (stereo unspecified) [R-N6-(2-phenylisopropyl) adenosine]	1.13	0.72

Source: BindingDB's records for doi:10.1007/s002100000340 (University of Illinois At Chicago, 2001)
